For data set [1], the target named is farnesyl protein transferase (Homo sapiens, UniProt P49354+P49356). Nature of the data set: In vitro assay for inhibition of farnesyl protein transferase. The class given is biochemical. To be noted: for IC50: negative log value of the IC50-value; for inhibition at 0.1 µM: read-out: % of inhibition at 10^−7 M. As to the method: “In Vitro Assay for Inhibition of Farnesyl Protein Transferase”
An in vitro assay for inhibition of farnesyl transferase was performed essentially as described in WO 98/40383pages 33–34.

[2] abbreviates: read-out: Enzyme activity pIC50 (converted).

From patent US7241777B2, “Benzylimidazolyl substituted 2-quinoline and quinazoline derivatives for use as farnesyl transferase inhibitors” (Janssen Pharmaceutica N.V., priority 2002, dated 2007) come the findings set out here.

Like-named read-outs stand apart in the source and are kept apart here.

For orientation: inhibition means the share of the control response that was lost under treatment. What is called melting point is the temperature of the solid-liquid transition. `Cn1c(=O)cc(-c2cccc(Cl)c2)c2cc(C(O)c3cncn3Cc3ccc(C#N)cc3)ccc21` (stereo not drawn) [Compound 3, 4-[[5-[[4-(3-chlorophenyl)-1,2-dihydro-1-methyl-2-oxo-6-quinolinyl]hydroxymethyl]-1H-imidazol-1-yl]methyl]-benzonitrile]: the melting point stood at 150 °C. Further, the IC50 in data set [1] (setting [2]) was 5.45 nM. The IC50 in data set [1] (read-out: pIC50 (converted)) was 5.01 nM. Moreover, in data set [1], the inhibition at 0.1 µM worked out at 92%.
Molecule `O=C(c1ccc2c(c1)c(-c1cccc(Cl)c1)cc1nnnn12)c1cncn1Cc1ccc(Cl)cc1` [Compound 4] displayed a melting point of 105 °C. For the same molecule, the IC50 in data set [1] (setting [2]) was over 100 nM. In addition, the inhibition at 0.1 µM in data set [1] was 26%.
The corresponding values for `OC(c1ccc2c(c1)c(-c1cccc(Cl)c1)cc1nnnn12)c1cncn1Cc1ccc(Cl)cc1` (stereo not drawn) [Compound 5] are 140 °C, over 100 nM and 32%.
Molecule `Cn1c(=O)cc(-c2cccc(Cl)c2)c2cc(C(=O)c3cncn3Cc3ccccc3)ccc21` [Compound 7] registered a melting point of 192 °C.
Same read-out and setting: under `Cn1c(=O)cc(-c2cccc(Cl)c2)c2cc(C(O)c3cncn3Cc3ccccc3)ccc21` (stereo not drawn) [Compound 8] stands 188 °C.
With `Cn1c(=O)cc(-c2cccc(Cl)c2)c2cc(C(NC3CC3)c3cncn3Cc3ccccc3)ccc21` (stereo not drawn) [Compound 9], in data set [1] (setting [2]), the IC50 was over 100 nM. Besides, in data set [1], the inhibition at 0.1 µM turned out to be 44%.
The corresponding values for `COC(c1ccc2c(c1)c(-c1cccc(Cl)c1)cc(=O)n2C)c1cncn1Cc1ccccc1` (stereo not drawn) [Compound 10] are over 100 nM and 43%.
With `Cn1c(=O)cc(-c2cccc(Cl)c2)c2cc(C(N)c3cncn3Cc3ccccc3)ccc21` (stereo not drawn) [Compound 11], the IC50 in data set [1] (setting [2]) was over 100 nM. Also, the inhibition at 0.1 µM in data set [1] turned out to be 49%.
Molecule `Cn1c(=O)cc(-c2cccc(Cl)c2)c2cc(C(c3cncn3Cc3ccccc3)n3ccnc3)ccc21` (stereo not drawn) [Compound 12] showed a melting point of 102 °C. Also, the IC50 in data set [1] (setting [2]) is over 100 nM. In addition, in data set [1], the inhibition at 0.1 µM stood at 47%.
As for `CC(=O)NC(c1ccc2c(c1)c(-c1cccc(Cl)c1)cc(=O)n2C)c1cncn1Cc1ccccc1` (stereo not drawn) [Compound 13], the melting point turned out to be 210 °C. The IC50 in data set [1] (setting [2]) is under 100 nM. Besides, the inhibition at 0.1 µM in data set [1] was 65%.
`N#Cc1ccc(Cn2cncc2C(O)c2ccc3c(c2)c(-c2cccc(Cl)c2)cc2nnnn23)cc1` (stereo not drawn) [Compound 14]: the IC50 in data set [1] (read-out: pIC50 (converted)) was 10.8 nM. Moreover, the inhibition at 0.1 µM in data set [1] worked out at 87%.
Turning to `O=C(c1ccc2c(c1)c(-c1cccc(Cl)c1)cc(=O)n2CC1CC1)c1cncn1Cc1ccc(Cl)cc1` [Compound 16], in data set [1] (setting [2]), the IC50 is over 100 nM. Further, in data set [1], the inhibition at 0.1 µM came out at 18%.
Regarding `N#Cc1ccc(Cn2c(=O)cc(-c3cccc(Cl)c3)c3cc(C(=O)c4cncn4Cc4ccc(Cl)cc4)ccc32)cc1` [Compound 17], in data set [1] (setting [2]), the IC50 is over 100 nM. In data set [1], the inhibition at 0.1 µM came out at 33%.
